Results taken from patent publication US20140243395A1, “SPRAY SYSTEM FOR PRODUCTION OF A MATRIX FORMED IN SITU” (ETHRIS GMBH, priority 2011, published 2014).

What was measured:
[1] = solubility of PLGA in the solvent, Matschke et al. 2002; cited from earlier work
[2] = tested on: mouse; conditions: i.v., 20% solution; cited from earlier work
[3] = tested on: rat; conditions: i.v., 40% DMI in isotonic saline solution (v/v); cited from earlier work
[4] = viscosity of solvents, rotational viscometer; format: physicochemical; conditions: 25° C.
[5] = in vivo; cited from earlier work
[6] = tested on: mesothelial cells; conditions: human
Description: In addition to 10% fetal calf serum (PPA Laboratories, Austria) an epidermal growth factor (5 ng/ml, Sigma-Aldrich, Germany) and hydrocortisone (400 ng/ml, Sigma-Aldrich, Germany) were added to the medium. Furthermore, the cells were passaged at a confluence of about 80% and used for tests up to a passage of 20.
The cytotoxicity of the solvent was determined by an ATP-based assay (ATPlite, Perkin Elmer). […] After the incubation period, the medium was sucked off, the cells were washed once with PBS, 50 μl PBS per well was added, and the cell viability was determined according to the manufacturer's instructions. […] For each point in time, the concentration of the solvent was plotted against the measured cell viability (mean values±standard deviation from n=4 runs) and a non-linear standard function was adapted: […]
The LD50 values were taken from the estimated values of the plotted regression curve. It is the concentration at which a cell viability of still 50% could be measured.
In addition, the influence of the solvent on the metabolic cell viability was studied for a period of 11 hours. Metabolic cell viability is determined by the ATP value of the cells, which is a measure of viability. […]

Row | Molecule | PLGA solubility [1] [%] | η (kinematic viscosity) [4] [mPas] | further results
1 | CO[C@H]1CO[C@H]2[C@@H]1OC[C@H]2OC [DMI, Dimethyl isosorbide] | 41 | 8.16 | LD50 [2]: 6.9 g/kg body weight; LD50 [3]: 5.4 g/kg body weight
2 | CCOC(=O)[C@H](C)O [Ethyl l-lactate] |  | 2.74 | 
3 | CC(=O)OCC(COC(C)=O)OC(C)=O [Triacetin] | 35 | 18.75 | 
4 | Alteplase: recombinantly produced t-PA protein |  |  | half-life in plasma [5]: 3 to 6 min
5 | glycerol formal | 33 | 14.4 | tolerance (LD50) higher by a factor compared to tetraglycol [6]: 400
6 | tetrahydrofurfuryl alcohol polyethyleneglycol [tetraglycol] |  | 16.6 | 
